From patent publication US20230355708A1 (priority 2020, published 2023)
*1 amine or outer side, *2 acyl side, *3 side chain or, on linkers, in order; H or OH if unused. Where a SMILES comes first, the peptide text is derived from it. Bridges are numbered along the chain shown (N, C = ends). [ ]: non-standard residue; d: D form. X1 = Cc1ccc(-c2ccc(-c3cn([C@H]4C[C@@H](C(=O)[*:2])N([*:1])C4)nn3)cc2)s1

Tests used:
[1] = test system: HIV-1; assay type: in vivo; conditions: animal model
[2] = test system: Fully-infected HIVNL4.3; conditions: read-out: Fully-infected HIVNL4.3 IC50
[3] = test system: HIVBal.01; conditions: read-out: HIVBal.01 IC50
[4] = test system: HIVJRFL; conditions: read-out: HIVJRFL IC50
[5] = test system: clade_AE envelope; assay type: binding, HIV-1
[6] = test system: SARS-CoV-2 pseudoviruses
[7] = test system: SARS-CoV-1 pseudoviruses
[8] = test system: SARS-CoV-2 pseudoviruses; assay type: cell-based
[9] = test system: SARS-CoV-1 pseudoviruses; assay type: cell-based
[10] = test system: SARS-CoV-1 pseudoviruses; assay type: cell-based; remark: listed apart in the source
[11] = test system: SARS-CoV-2 pseudoviruses; assay type: cell-based; remark: listed apart in the source
[12] = target: SARS-CoV-2 spike S2 subunit (Severe acute respiratory syndrome coronavirus 2, UniProt P0DTC2)

Row | Molecule | HIV-1 viral load normalized to Hu CD4+ T cell counts [1] | IC50 [2] [nM] | IC50 [3] [nM] | IC50 [4] [nM] | binding to clade_AE envelope [5] | virolysis of SARS-CoV-2 pseudoviruses [6] | virolysis of SARS-CoV-1 pseudoviruses [7] | irreversible inactivation of SARS-CoV-2 [8] | irreversible inactivation of SARS-CoV-1 [9] | inhibition of SARS-CoV-1 pseudovirus infection [10] | inhibition of SARS-CoV-2 pseudovirus infection [11] | stoichiometry of binding, S2 versus S1 [12]
1 | CC[C@H](C)[C@@H]1NC(=O)[C@H](CC(N)=O)NC(=O)[C@@H](N)CC(=O)NCCCC[C@@H](C(N)=O)NC(=O)[C@H](Cc2c[nH]c3ccccc23)NC(=O)[C@@H]2C[C@H](n3cc(-c4ccc(-c5ccc(C)s5)cc4)nn3)CN2C1=O [AAR029N2, (3S,6S,14S,17S,20S,24S,25aS)-3-((1H-indol-3-yl)methyl)-14-amino-17-(2-amino-2-oxoethyl)-20-((S)-sec-butyl)-24-(4-(4-(5-methylthiophen-2-yl)phenyl)-1H-1,2,3-triazol-1-yl)-1,4,12,15,18,21-hexaoxotetracosahydro-1H-pyrrolo[2,1-f][1,4,7,10,13,18]hexaazacyclotricosine-6-carboxamide] (H-DNI[X1]WK-NH2; lactam 1-6) | significant efficacy in an animal model | ~180 | ~100 | ~112 | binds clade_AE envelope |  |  |  |  |  |  | 
2 | GRFT: lectin Griffithsin, SEQ ID NO:2 |  |  |  |  |  | does not causes significant virolysis | does not causes significant virolysis | partial irreversible inactivation | partial irreversible inactivation | reduced inhibition of infection | reduced inhibition of infection | higher for the S2 subunit as compared to the S1 subunit
